Source: patent US10167262B2, “Herbicidal substituted 3-arylpyrazoles” (FMC CORPORATION, priority 2014, dated 2019)

Tests used:
Type in all cases: in vivo
[1] = test system: ducksalad (Heteranthera limosa); assay: Test B flooded paddy test, plant response rating 0-100; conditions: Flood, 250 g ai/ha; scale 0 to 100 (0 no effect, 100 complete control); 13 to 15 days
Outline: (§1)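 Flooded 3 cm over soil; compound into paddy water; depth kept constant. Greenhouse 13–15 d.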

rice (Oryza sativa) = assay: as above; conditions: Flood, 250 g ai/ha; scale 0 to 100 (0 no effect, 100 complete control); 13 to 15 days
Outline: as §1

[2] = test system: sedge, umbrella (small-flower umbrella sedge, Cyperus difformis); assay: as above; conditions: Flood, 250 g ai/ha; scale 0 to 100 (0 no effect, 100 complete control); 13 to 15 days
Outline: as §1

[3] = test system: bermudagrass (Cynodon dactylon); assay: Test C postemergence greenhouse test, plant response rating 0-100; conditions: for Plant response rating, Bermudagrass: scale 0 to 100
Outline: (§2)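 Potted in peat/vermiculite mix; postemergence application at 1–4 leaves (2–18 cm); greenhouse 13–15 d; visual score 0–100 relative to untreated plants; dash = no test result.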

[4] = test system: downy bromegrass (Bromus tectorum); assay: as above; conditions: for Plant response rating, Bromegrass, Downy: scale 0 to 100
Outline: as §2

[5] = test system: green foxtail (Setaria viridis); assay: as above; conditions: for Plant response rating, Foxtail, Green: scale 0 to 100
Outline: as §2

[6] = test system: surinam grass (Brachiaria decumbens); assay: as above; conditions: for Plant response rating, Surinam Grass: scale 0 to 100
Outline: as §2

[7] = test system: windgrass (Apera spica-venti); assay: as above; conditions: for Plant response rating, Windgrass: scale 0 to 100
Outline: as §2

[8] = test system: winter barley (Hordeum vulgare); assay: as above; conditions: for Plant response rating, Barley: scale 0 to 100
Outline: as §2

[9] = test system: barnyardgrass (Echinochloa crus-galli); assay: Test B flooded paddy test, plant response rating 0-100; conditions: Flood, 250 g ai/ha; scale 0 to 100 (0 no effect, 100 complete control); 13 to 15 days
Outline: as §1

Row | Structure (SMILES) | Plant response rating (0 to 100), Bermudagrass ([3]; 31 g ai/ha) | Plant response rating (0 to 100), Bermudagrass ([3]; 62 g ai/ha) | Plant response rating, Bermudagrass ([3]; 250 g ai/ha) | Plant response rating (0 to 100), Bromegrass, Downy ([4]; 31 g ai/ha) | Plant response rating (0 to 100), Bromegrass, Downy ([4]; 62 g ai/ha) | Plant response rating, Bromegrass, Downy ([4]; 250 g ai/ha) | Plant response rating (0 to 100), Foxtail, Green ([5]; 31 g ai/ha) | Plant response rating (0 to 100), Foxtail, Green ([5]; 62 g ai/ha) | Plant response rating (0 to 100), Foxtail, Green ([5]; 125 g ai/ha) | Plant response rating, Foxtail, Green ([5]; 250 g ai/ha) | Plant response rating (0 to 100), Surinam Grass ([6]; 62 g ai/ha) | Plant response rating (0 to 100), Surinam Grass ([6]; 125 g ai/ha) | Plant response rating, Surinam Grass ([6]; 250 g ai/ha) | Plant response rating (0 to 100), Windgrass ([7]; 62 g ai/ha) | Plant response rating (0 to 100), Windgrass ([7]; 125 g ai/ha) | Plant response rating, Windgrass ([7]; 250 g ai/ha) | Plant response rating (0 to 100), Barley ([8]; 31 g ai/ha) | Plant response rating (0 to 100), Barley ([8]; 62 g ai/ha) | Plant response rating, Barley ([8]; 250 g ai/ha) | Plant response rating (0 to 100), Bermudagrass ([3]; 125 g ai/ha) | other results
1 | Cn1cc(C(=NN2CCCC2)c2ccccc2)c(-c2cc(Cl)c(Cl)c(Cl)c2)n1 [Compound 25] | 0 | 0 | 0 | 0 | 0 | 0 | 0 | 0 | 5 | 15 | 0 | 0 | 0 | 0 | 0 | 25 | 0 | 0 | 10 |  | Plant response rating, Ducksalad [1]: 0; Plant response rating, Rice (rice (Oryza sativa)): 0; Plant response rating, Sedge, Umbrella [2]: 70; Plant response rating, Bermudagrass ([3]; 125 g ai/ha): 0; Plant response rating, Bromegrass, Downy ([4]; 125 g ai/ha): 0; Plant response rating, Barley ([8]; 125 g ai/ha): 5
2 | CCOC(OCC)(c1cccs1)c1c[nH]nc1-c1cc(Cl)cc(Cl)c1 [Compound 27] |  |  |  |  |  |  |  |  |  |  |  |  |  |  |  |  |  |  |  |  | Plant response rating, Barnyardgrass [9]: 0; Plant response rating, Ducksalad [1]: 0; Plant response rating, Rice (rice (Oryza sativa)): 0; Plant response rating, Sedge, Umbrella [2]: 0
3 | Clc1cc(Cl)cc(-c2n[nH]cc2C(=NN2CCCC2)c2ccccc2)c1 [Compound 30, N-[[3-(3,5-dichlorophenyl)-1H-pyrazol-4-yl]phenylmethylene]-1-pyrrolidinamine] | 0 | 0 | 0 | 0 | 0 | 0 | 0 | 0 | 0 | 0 | 0 | 0 | 0 | 0 | 0 | 0 | 0 | 0 | 0 |  | Plant response rating, Bermudagrass ([3]; 125 g ai/ha): 0; Plant response rating, Bromegrass, Downy ([4]; 125 g ai/ha): 0; Plant response rating, Barley ([8]; 125 g ai/ha): 0
4 | Fc1ccc(NN=C(c2ccccc2)c2c[nH]nc2-c2cc(Cl)cc(Cl)c2)cc1 [Compound 35] |  | 0 | 0 |  | 0 | 0 |  | 0 | 0 | 0 | 0 | 0 | 0 | 0 | 0 | 0 |  | 0 | 0 | 0 | Plant response rating, Barnyardgrass [9]: 0; Plant response rating, Ducksalad [1]: 0; Plant response rating, Rice (rice (Oryza sativa)): 0; Plant response rating, Sedge, Umbrella [2]: 0; Plant response rating, Bermudagrass ([3]; 500 g ai/ha): 0; Plant response rating (0 to 100), Bromegrass, Downy ([4]; 125 g ai/ha): 0; Plant response rating, Bromegrass, Downy ([4]; 500 g ai/ha): 0; Plant response rating, Foxtail, Green ([5]; 500 g ai/ha): 20; Plant response rating, Surinam Grass ([6]; 500 g ai/ha): 0; Plant response rating, Windgrass ([7]; 500 g ai/ha): 0; Plant response rating (0 to 100), Barley ([8]; 125 g ai/ha): 0; Plant response rating, Barley ([8]; 500 g ai/ha): 0
5 | CCn1cc(C(=NN2CCCC2)c2ccccc2)c(-c2cc(Cl)cc(Cl)c2)n1 [Compound 37] | 0 | 0 | 0 | 0 | 0 | 0 | 0 | 0 | 0 | 0 | 0 | 0 | 0 | 0 | 0 | 0 | 0 | 0 | 0 | 0 | Plant response rating (0 to 100), Bromegrass, Downy ([4]; 125 g ai/ha): 0; Plant response rating (0 to 100), Barley ([8]; 125 g ai/ha): 0
6 | CCn1cc(C(=O)c2ccccc2)c(-c2cc(Br)cc(Br)c2)n1 [Compound 38] | 0 | 0 | 0 | 0 | 0 | 0 | 0 | 0 | 0 | 5 | 0 | 0 | 0 | 0 | 0 | 0 | 0 | 0 | 0 | 0 | Plant response rating, Barnyardgrass [9]: 0; Plant response rating, Ducksalad [1]: 0; Plant response rating, Rice (rice (Oryza sativa)): 0; Plant response rating, Sedge, Umbrella [2]: 0; Plant response rating (0 to 100), Bromegrass, Downy ([4]; 125 g ai/ha): 0; Plant response rating (0 to 100), Barley ([8]; 125 g ai/ha): 0
7 | CC(C)n1cc(C(=O)c2ccccc2)c(-c2cc(Cl)cc(Cl)c2)n1 [Compound 44] | 0 | 0 | 0 | 0 | 0 | 0 | 0 | 0 | 0 | 0 | 0 | 0 | 0 | 0 | 0 | 0 | 0 | 0 | 0 | 0 | Plant response rating, Barnyardgrass [9]: 0; Plant response rating, Ducksalad [1]: 0; Plant response rating, Rice (rice (Oryza sativa)): 0; Plant response rating, Sedge, Umbrella [2]: 0; Plant response rating (0 to 100), Bromegrass, Downy ([4]; 125 g ai/ha): 0; Plant response rating (0 to 100), Barley ([8]; 125 g ai/ha): 0
8 | ON=C(c1ccccc1)c1c[nH]nc1-c1cc(Cl)cc(Cl)c1 [Compound 50] | 0 | 0 | 0 | 0 | 0 | 0 | 0 | 0 | 0 | 0 | 0 | 0 | 0 | 0 | 0 | 0 | 0 | 0 | 0 | 0 | Plant response rating (0 to 100), Bromegrass, Downy ([4]; 125 g ai/ha): 0; Plant response rating (0 to 100), Barley ([8]; 125 g ai/ha): 0
9 | CCCn1cc(C(=O)c2ccccc2)c(-c2cc(Cl)cc(Cl)c2)n1 [Compound 61, [3-(3,5-dichlorophenyl)-1-propyl-1H-pyrazol-4-yl]phenylmethanone] | 0 | 5 | 5 | 0 | 0 | 0 | 0 | 0 | 0 | 0 | 0 | 0 | 0 | 0 | 0 | 0 | 0 | 0 | 0 | 5 | Plant response rating (0 to 100), Bromegrass, Downy ([4]; 125 g ai/ha): 0; Plant response rating (0 to 100), Barley ([8]; 125 g ai/ha): 0
